From patent US11576914B2, “Drug for treating or preventing disorder caused by TGF-β signaling, and application thereof” (THE DOSHISHA, priority 2017, dated 2023)
Entries after “also recorded” stand apart in the source; their conditions may differ.

Legend:
[1] = test system: Fuchs' endothelial corneal dystrophy patient-derived immortalized corneal endothelial cells; assay: Cell damage inhibitory effect on iFECD stimulated with TGF-β2 (phase contrast microscope); assay type: cell-based, human
Experimental: The medium was removed from the culture dish in which Fuchs' endothelial corneal dystrophy patient-derived immortalized corneal endothelial cells (hereinafter, referred to as disease model cells) were being cultured, and the cells were supplemented with 1×PBS (−) that was preheated to 37° C., and were washed. This operation was repeated twice. The cells were supplemented with 1×PBS (−) again and incubated for 5 minutes at 37° C. (5% CO2). After the PBS (−) was removed, the cells were supplemented with 0.05% Trypsin-EDTA (nacalai tesque, 32778-34) and incubated for 5 minutes at 37° C. (5% CO2). The cells were then suspended in a medium, and collected by centrifugation at 1500 rpm for 3 minutes. DMEM (nacalai tesque, 08456-36)+10% FBS (Biowest, S1820-500)+1% P/S (nacalai tesque, 26252-94) was used as the medium. The disease model cells were seeded in a 6-well plate at a rate of 1.5×10^5 cells per well and cultured at 37° C. (5% CO2) for 48 hours. DMEM+10% FBS+1% P/S was used as the medium.
After 48 hours, the medium was removed, and AKP-001, SB203580 (Cayman, 13067), PH-797804 (Selleck Chemicals, S2726) and VX-702 (Selleck Chemicals, 56005) were added to DMEM+2% FBS+1% P/S so that the final concentration was 0.01, 0.03, 0.1, 0.3, 1, 3, 10 and 30 μM, followed by culturing as 24-hour pretreatment. After 24 hours, the medium was removed, and AKP-001, 5B203580 (Cayman, 13067), PH-797804 (Selleck Chemicals, S2726), or VX-702 (Selleck Chemicals, S6005), together with 100 ng/ml Recombinant Human TGF-β2 (R&D systems, RND302-B2-002), were added to DMEM+2% FBS+1% P/S so that the final concentration was 0.01 μM, 0.03 μM, 0.1 μM, 0.3 μM, 1 μM, 3 μM, 10 μM, and 30 μM, followed by culturing for 24 hours. After 24 hours, cell damage was evaluated by observation with a phase contrast microscope. As a control, immortalized corneal endothelial cells that were not stimulated with TGF-β were used.

caspase 3/7 = assay: Caspase-Glo 3/7 Assay in human corneal endothelial cells in the presence of AKP-001; assay type: cell-based; settings: 24 hours
Experimental: Cultured human corneal endothelial cells were seeded at a rate of 1×10^4 per well in a 96-well plate coated with laminin-511E8, and the cells were cultured until reaching confluence at 37° C. (5% CO^2). For the medium, used was OptiMEM-I (invitrogen, 31985-088)+8% FBS (Thermo, SH30084.03)+5 ng/mL epidermal growth factor (invitrogen, PHG0311)+20 μg/mL L-ascorbic acid 2-sesquimagnesium phosphate hydrate (SIGMA, A8960)+200 mg/L calcium chloride dihydrate (SIGMA, C7902)+0.08% chondroitin sulfate (Wako Pure Chemical Industries, Ltd., 032-14613)+50 μg/mL gentamicin (invitrogen, 15710-064)+1 μM SB431542 (WAKO, 192-16541)+10 μM SB203580 (Cayman, 13067).
Upon reaching confluence, the culturing was further conducted for one more week with OptiMEM-I (invitrogen, 31985-088)+8% FBS (Thermo, SH30084.03)+20 μg/mL+200 mg/L calcium chloride dihydrate (SIGMA, C7902)+0.08% chondroitin sulfate (Wako Pure Chemical Industries, Ltd., 032-14613)+50 μg/mL gentamicin (invitrogen, 15710-064).
After one week, the medium was removed, and a medium with 0.1 μM, 0.3 μM, 1 μM, 3 μM, 10 μM, 30 μM and 100 μM AKP-001 included therein was added, followed by culturing for 24 hours. For the medium, used was OptiMEM-I (invitrogen, 31985-088)+8% FBS (Thermo, SH30084.03)+20 μg/mL+200 mg/L calcium chloride dihydrate (SIGMA, C7902)+0.08% chondroitin sulfate (Wako Pure Chemical Industries, Ltd., 032-14613)+50 μg/mL gentamicin (invitrogen, 15710-064).
After the observation, the caspase 3/7 activity was measured by Caspase-Glo 3/7 Assay according to the following procedure. The medium was discarded to 50 μl per well, and Caspase Glo 3/7 Assay Reagent (mixture of Caspase-Glo 3/7 Assay Buffer and Caspase-Glo 3/7 Assay Substrate) (Promega, G8091) solution was added to the 50 μl/well to reach 1:1 with the medium. The operations from this point on were conducted while light was blocked. […] After standing, 80 μl was transferred to an Assay plate (Corning, 3912, Assay plate 96 well, white polystyrene), and the […] was measured using GloMax-Multi Detection System (Promega, E7051).

**Q.** Which results are given for `O=C(Cc1c(F)cccc1Cl)Nc1onc(-c2ccc(F)cc2)c1-c1ccncn1` [AKP-001, 5-[(2-chloro-6-fluorophenyl)acetylamino]-3-(4-fluorophenyl)-4-(4-pyrimidinyl)isoxazole]?
**A.** damage inhibitory effect for the corneal endothelial cells ([1]; 0.01 μM): observed; disorder in the corneal endothelial cells ([1]; 0.1 μM, 0.3 μM, 1 μM and 3 μM, iFECD, pretreatment, TGF-β2 stimulation): effectively suppressed; cell damage inhibitory effect for the corneal endothelial cells ([1]; at sub-μM): exerted an inhibitory effect; also recorded: able to suppress cell damage; caspase 3/7 activity compared to the control group (caspase 3/7; 0.1 μM, 0.3 μM, 1 μM and 3 μM): no significant difference; caspase 3/7 activity compared to the control group (caspase 3/7; 10 μM, 30 μM and 100 μM): significantly activated; concentrations at which no damage to the cells is caused (caspase 3/7): ≤ 10 µM
